Data published in US12071425B2 (Genentech, Inc., priority 2018, dated 2024).
Structures can show the parent of a compound that is named as a salt.

Biological target: kinase domain of IRE1 alpha (His-tagged kinase dead construct KR, AA G547-L977, D688N) (Homo sapiens (Human), UniProt O75460, D688N)
Assay: IRE1α TR-FRET competition binding assay
Conditions: competition with Kinase Tracer 236, 0.1 μM; one hour at room temperature
In short: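 Sf9-expressed kinase-dead KR construct (0.006 μM final) pre-incubated 1 h at 4° C with Eu anti-His antibody (0.002 μM) in HEPES pH 7.5/MgCl2/Brij/DTT buffer; Kinase Tracer 236 (ATP-competitive probe, 0.1 μM final) added with compound. 1 h at room temperature; tracer displacement read by TR-FRET (665/615 nm).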

Chain of kinase domain of IRE1 alpha (His-tagged kinase dead construct KR, AA G547-L977, D688N) (O75460 547-977 D688N): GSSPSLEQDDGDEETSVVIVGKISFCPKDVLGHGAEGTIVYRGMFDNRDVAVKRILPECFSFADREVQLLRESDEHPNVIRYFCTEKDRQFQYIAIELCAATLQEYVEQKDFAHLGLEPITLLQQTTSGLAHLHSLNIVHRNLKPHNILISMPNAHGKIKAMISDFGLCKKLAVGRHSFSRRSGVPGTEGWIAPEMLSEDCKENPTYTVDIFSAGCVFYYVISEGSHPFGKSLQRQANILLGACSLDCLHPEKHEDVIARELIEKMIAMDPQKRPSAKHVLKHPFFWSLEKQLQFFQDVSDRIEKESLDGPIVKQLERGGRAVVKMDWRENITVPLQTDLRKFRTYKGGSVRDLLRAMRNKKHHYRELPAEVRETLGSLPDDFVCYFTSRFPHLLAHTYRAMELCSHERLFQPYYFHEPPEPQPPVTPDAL

SMILES	IC50 [nM]
O=S(=O)(Cc1ccccc1)Nc1c(F)cc(Oc2ncccc2-c2ccnc(N[C@@H]3CNC[C@H](CF)C3)n2)c(F)c1F [Compound 262, 1-Phenyl-N-(2,3,6-trifluoro-4-((3-(2-(((3S,5R)-5-(fluoromethyl)piperidin-3-yl)amino)pyrimidin-4-yl)pyridin-2-yl)oxy)phenyl)methanesulfonamide]	0.25
Cc1c(Oc2ncccc2-c2ccnc(N[C@H]3CCCNC3)n2)cc(F)c(NS(=O)(=O)Cc2ccccc2)c1C [Compound 175, (S)-N-(6-fluoro-2,3-dimethyl-4-((3-(2-(piperidin-3-ylamino)pyrimidin-4-yl)pyridin-2-yl)oxy)phenyl)-1-phenylmethanesulfonamide]	5.2
C[C@@]1(F)CNC[C@@H](Nc2nccc(-c3cccnc3Oc3ccc(NS(=O)(=O)Cc4ccccc4)c(F)c3F)n2)C1 [Compound 174, N-(2,3-difluoro-4-((3-(2-(((3S,5S)-5-fluoro-5-methylpiperidin-3-yl)amino)pyrimidin-4-yl)pyridin-2-yl)oxy)phenyl)-1-phenylmethanesulfonamide]	3.1
O=S(=O)(Cc1ccccc1)Nc1ccc(Oc2ncccc2-c2ccnc(N[C@H]3CCCNC3)n2)cc1C(F)(F)F [Compound 113, (S)-1-phenyl-N-(4-((3-(2-(piperidin-3-ylamino)pyrimidin-4-yl)pyridin-2-yl)oxy)-2-(trifluoromethyl)phenyl)methanesulfonamide]	11
O=C(Nc1ccc(Oc2ncccc2-c2ccnc(N[C@H]3CCCNC3)n2)c(F)c1F)C1CC12CC2 (single isomer, unassigned) [Compound 150, hydrochloride]	300
CN(C)C1CCC(Nc2nccc(-c3cccnc3Oc3cc(F)c(NS(=O)(=O)Cc4ccccc4)c(F)c3F)n2)CC1F (single isomer, unassigned) [Compound 307, N-(4-((3-(2-((4-(Dimethylamino)-3-fluorocyclohexyl)amino)pyrimidin-4-yl)pyridin-2-yl)oxy)-2,3,6-trifluorophenyl)-1-phenylmethanesulfonamide hydrochloride]	0.31
O=S(=O)(Cc1ccccc1F)Nc1c(Cl)cc(Oc2ncccc2-c2ccnc(N[C@@H]3CNC[C@@H](F)C3)n2)c(F)c1F [Compound 323, N-(6-Chloro-2,3-difluoro-4-((3-(2-(((3S,5S)-5-fluoropiperidin-3-yl)amino)pyrimidin-4-yl)pyridin-2-yl)oxy)phenyl)-1-(2-fluorophenyl)methanesulfonamide]	0.33
O=S(=O)(Cc1ccccn1)Nc1c(F)cc(Oc2ncccc2-c2ccnc(N[C@@H]3CNC[C@@H](F)C3)n2)c(F)c1F [Compound 356, 1-(2-Pyridyl)-N-[2,3,6-trifluoro-4-[[3-[2-[[(3S,5S)-5-fluoro-3-piperidyl]amino]pyrimidin-4-yl]-2-pyridyl]oxy]phenyl]methanesulfonamide]	0.2
CCCS(=O)(=O)Nc1cc(F)c(Oc2ncccc2-c2ccnc(N[C@H]3CC[C@H](N)CC3)n2)c(Cl)c1 [Compound 121, N-(4-((3-(2-(((1r,4r)-4-Aminocyclohexyl)amino)pyrimidin-4-yl)pyridin-2-yl)oxy)-3-chloro-5-fluorophenyl)propane-1-sulfonamide hydrochloride]	26
COCC1CNCC(Nc2nccc(-c3cccnc3Oc3cc(F)c(NS(=O)(=O)Cc4ccccc4)c(F)c3F)n2)C1 (single isomer, unassigned) [Compound 329, 1-Phenyl-N-(2,3,6-trifluoro-4-((3-(2-((5-(methoxymethyl)piperidin-3-yl)amino)pyrimidin-4-yl)pyridin-2-yl)oxy)phenyl)methanesulfonamide]	12
O=S(=O)(Cc1ccccc1F)Nc1c(F)cc(Oc2ncccc2-c2ccnc(N[C@@H]3CNC[C@@H](F)C3)n2)c(F)c1F [Compound 355, 1-(2-Fluorophenyl)-N-[2,3,6-trifluoro-4-[[3-[2-[[(3S,5S)-5-fluoro-3-piperidyl]amino]pyrimidin-4-yl]-2-pyridyl]oxy]phenyl]methanesulfonamide]	0.2
CCC(F)(F)CS(=O)(=O)Nc1c(F)cc(Oc2ncccc2-c2ccnc(N[C@@H]3CNC[C@@H](F)C3)n2)c(F)c1F [Compound 189, 2.2-difluoro-N-(2,3,6-trifluoro-4-((3-(2-(((3S,5S)-5-fluoro-3-piperidyl)amino)pyrimidin-4-yl)-2-pyridyl)oxy)phenyl)butane-1-sulfonamide]	5
O=S(=O)(Cc1ccccc1)Nc1cc(F)c(Oc2ncccc2-c2ccnc(N[C@H]3CCCNC3)n2)cc1F [Compound 107, (S)-N-(2,5-difluoro-4-((3-(2-(piperidin-3-ylamino)pyrimidin-4-yl)pyridin-2-yl)oxy)phenyl)-1-phenylmethanesulfonamide hydrochloride]	5.2
CN(C)C1CCC(Nc2nccc(-c3cccnc3Oc3cc(F)c(NS(=O)(=O)Cc4ccccc4)c(F)c3F)n2)CC1F (single isomer, unassigned) [Compound 308, N-(4-((3-(2-((4-(Dimethylamino)-3-fluorocyclohexyl)amino)pyrimidin-4-yl)pyridin-2-yl)oxy)-2,3,6-trifluorophenyl)-1-phenylmethanesulfonamide]	83
CCC(F)(F)CS(=O)(=O)Nc1c(F)cc(Oc2ncc(F)cc2-c2ccnc(N[C@@H]3CNC[C@@H](F)C3)n2)c(F)c1F [Compound 268, 2,2-Difluoro-N-(2,3,6-trifluoro-4-((5-fluoro-3-(2-(((3S,5S)-5-fluoropiperidin-3-yl)amino)pyrimidin-4-yl)pyridin-2-yl)oxy)phenyl)butane-1-sulfonamide]	1.1
O=S(=O)(Nc1ccc(Oc2ncccc2-c2ccnc(N[C@H]3CCCNC3)n2)c(F)c1F)c1cc(F)cc(F)c1 [Compound 206, N-[2,3-Difluoro-4-[[3-[2-[[(3S)-3-piperidyl]amino]pyrimidin-4-yl]-2-pyridyl]oxy]phenyl]-3,5-difluoro-benzenesulfonamide]	8.2

Continued by falling IC50, values first:

IC50 [nM]	SMILES
280	CCCS(=O)(=O)Nc1cc(C)c(Oc2ncccc2-c2ccnc(N[C@H]3CCCNC3)n2)cc1C [Compound 126, (S)-N-(2,5-Dimethyl-4-((3-(2-(piperidin-3-ylamino)pyrimidin-4-yl)pyridin-2-yl)oxy)phenyl)propane-1-sulfonamide]
210	O=C(Nc1ccc(Oc2ncccc2-c2ccnc(N[C@H]3CCCNC3)n2)c(F)c1F)C1CC1 [Compound 147, (S)—N-(2,3-Difluoro-4-(3-(2-(piperidin-3-ylamino)pyrimidin-4-yl)pyridin-2-yloxy)phenyl)cyclopropanecarboxamide hydrochloride]
84	O=C(Nc1ccc(Oc2ncccc2-c2ccnc(N[C@H]3CCCNC3)n2)c(F)c1F)C1CC12CC2 (stereo partly drawn) [Compound 151, N-(2,3-difluoro-4-((3-(2-(((S)-piperidin-3-yl)amino)pyrimidin-4-yl)pyridin-2-yl)oxy)phenyl)spiro[2.2]pentane-1-carboxamide hydrochloride]
26	O=S(=O)(Nc1ccc(Oc2ncccc2-c2ccnc(N[C@H]3CCCNC3)n2)c(F)c1F)c1ccc(OC(F)(F)F)cc1 [Compound 223, (S)-N-(2,3-difluoro-4-((3-(2-(piperidin-3-ylamino)pyrimidin-4-yl)pyridin-2-yl)oxy)phenyl)-4-(trifluoromethoxy)benzenesulfonamide]
21	O=S(=O)(Nc1ccc(Oc2ncccc2-c2ccnc(N[C@H]3CCCNC3)n2)cc1)c1ccccc1Cl [Compound 134, (S)-2-Chloro-N-(4-((3-(2-(piperidin-3-ylamino)pyrimidin-4-yl)pyridin-2-yl)oxy)phenyl)benzenesulfonamide hydrochloride]
17	O=S(=O)(Nc1cccc(Oc2ncccc2-c2ccnc(N[C@H]3CCCNC3)n2)c1F)c1ccccc1Cl [Compound 141, (S)-2-Chloro-N-(2-fluoro-3-((3-(2-(piperidin-3-ylamino)pyrimidin-4-yl)pyridin-2-yl)oxy)phenyl)benzenesulfonamide hydrochloride]
11	O=S(=O)(Cc1ccccc1)Nc1ccc(Oc2ncccc2-c2ccnc(N[C@H]3CCCNC3)n2)c(F)c1 [Compound 159, (S)-N-(3-fluoro-4-((3-(2-(piperidin-3-ylamino)pyrimidin-4-yl)pyridin-2-yl)oxy)phenyl)-1-phenylmethanesulfonamide]
9	O=S(=O)(Cc1cccnc1)Nc1ccc(Oc2ncccc2-c2ccnc(N[C@H]3CCCNC3)n2)c(F)c1F [Compound 233, (S)-N-(2,3-difluoro-4-(3-(2-(piperidin-3-ylamino)pyrimidin-4-yl)pyridin-2-yloxy)phenyl)-1-(pyridin-3-yl)methanesulfonamide]
3.5	O=S(=O)(CC1(F)CC1)Nc1c(F)cc(Oc2ncccc2-c2ccnc(N[C@@H]3CNC[C@@H](F)C3)n2)c(F)c1F [Compound 261, 1-(l-Fluorocyclopropyl)-N-(2,3,6-trifluoro-4-((3-(2-(((3S,5S)-5-fluoropiperidin-3-yl)amino)pyrimidin-4-yl)pyridin-2-yl)oxy)phenyl)methanesulfonamide]
0.5	COCCN(C)[C@H]1CC[C@H](Nc2nccc(-c3cccnc3Oc3cc(F)c(NS(=O)(=O)Cc4ccc(F)cc4)c(F)c3F)n2)CC1 [Compound 341, 1-(4-Fluorophenyl)-N-(2,3,6-trifluoro-4-((3-(2-(((1r,4r)-4-((2-methoxyethyl)(methyl)amino)cyclohexyl)amino)pyrimidin-4-yl)pyridin-2-yl)oxy)phenyl)methanesulfonamide hydrochloride]
0.15	Cc1ccc(CS(=O)(=O)Nc2c(F)cc(Oc3ncccc3-c3ccnc(N[C@@H]4CNC[C@@](C)(F)C4)n3)c(F)c2F)cc1 [Compound 284, 1-p-Tolyl-N-(2,3,6-trifluoro-4-((3-(2-(((3S,5S)-5-fluoro-5-methylpiperidin-3-yl)amino)pyrimidin-4-yl)pyridin-2-yl)oxy)phenyl)methanesulfonamide]
